Source: patent US12392781B2, “Deuterated indole heptamethine cyanine dyes” (University of Notre Dame du Lac, priority 2021, dated 2025)
“Also recorded” adds a separate entry of the source.

Tests used:
[1] = Stability of 1.0 mM aqueous solutions stored at 4° C. in the dark (1H NMR); format: physicochemical; details: for Purity of aqueous solution: 1.0 mM
Method: After 7 days and 28 days (separate samples), 1 mL aliquots were taken from each stock solution, the solutions were lyophilized, the solid residue was dissolved in methanol-d4 and ^1H NMR spectra were acquired.
After 7 days and 28 days (separate samples), 1 mL aliquots were taken from each stock solution, the solutions were lyophilized, the solid residue dissolved in methanol-d4 and ^1H NMR spectra were acquired.

[2] = cited from earlier work
[3] = molecular target: bovine serum albumin (BSA) (Bos taurus, UniProt P02769); assay: Bovine serum albumin (BSA) binding by tryptophan fluorescence quenching titration; details: pH 7.4 PBS buffer, 37° C.; for Association constant Ka, titration isotherm fitted to 1:1 model: N=3
bovine serum albumin (BSA), sequence (P02769 25-607): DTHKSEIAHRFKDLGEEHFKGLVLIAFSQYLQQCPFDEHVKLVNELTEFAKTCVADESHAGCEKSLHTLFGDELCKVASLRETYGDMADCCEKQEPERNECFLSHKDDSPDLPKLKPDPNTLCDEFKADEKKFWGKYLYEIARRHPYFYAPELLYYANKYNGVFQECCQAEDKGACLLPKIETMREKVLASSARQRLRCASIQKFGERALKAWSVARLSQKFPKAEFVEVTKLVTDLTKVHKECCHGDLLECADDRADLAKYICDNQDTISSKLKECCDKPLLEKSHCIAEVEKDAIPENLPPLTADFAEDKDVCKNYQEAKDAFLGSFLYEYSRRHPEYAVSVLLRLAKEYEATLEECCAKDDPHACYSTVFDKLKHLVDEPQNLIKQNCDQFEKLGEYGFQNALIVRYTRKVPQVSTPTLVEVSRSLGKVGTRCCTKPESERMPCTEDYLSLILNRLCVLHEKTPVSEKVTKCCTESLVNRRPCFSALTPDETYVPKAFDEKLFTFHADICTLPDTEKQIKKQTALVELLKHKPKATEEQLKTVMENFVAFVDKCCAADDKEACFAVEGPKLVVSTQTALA
Method: The titration experiments measured quenching of bovine serum albumin (BSA, 1 mL of 2 μM solution in pH 7.4 PBS buffer) tryptophan fluorescence at 37° C. as dye was added incrementally. A fluorescence spectrum (ex: 280 nm, slit width: 2 nm) was acquired after each dye aliquot was added (2 μL of 1 mM dye stock solutions in water). After each aliquot addition, the solution was mixed and allowed to equilibrate at 37° C. for 5 min before spectral acquisition. Association constants were determined by plotting the change in fluorescence intensity at 345 nm verses molar equivalents using 1:1 binding stoichiometry on the BindFit software. Experiments were done in triplicates. Equations for determining association and dissociation constant are shown below:
[formula] [formula] where F is the fluorescence intensity of tryptophan after adding certain amount of dye, k is the proportionality constant for BSA tryptophan under the experimental condition, Ka is the association constant, [BSA]

[4] = Photobleaching under high intensity irradiation (150 W Xenon lamp, 620 nm long-pass filter); details: 6 h irradiation, 1.0 mM or 0.05 mM in water or ethanol, TLC
[5] = Photophysical properties at room temperature (absorption, fluorescence, quantum yield); format: physicochemical; details: for λ abs max / λ em max / ε: room temperature; for ε: Beer-Lambert fit 1-5 μM; for ΦF (fluorescence quantum yield): absolute (integrating sphere) for ICG, ICG-d5, ICG-d7, relative to ICG for 1; for Brightness: in M^-1 cm^-1 (unit assumed)
Method: Reagents and solvents were purchased from Sigma-Aldrich, VWR, Oakwood, Thermo Fisher and used without further purification unless stated otherwise. Column chromatography was performed using Biotage Sfär C18 Duo columns (part #FSUD-0401). Reverse- phase thin layer chromatography (TLC) experiments were performed on C18 TLC plates with F254s indicator (MilliporeSigma, part #1.15683). ^1H NMR spectra were recorded on a Bruker 500 NMR spectrometer. Chemical shifts are presented in ppm and referenced by residual solvent peak. High-resolution mass spectrometry (HRMS) was performed using a time-of-flight (TOF) analyzer with electrospray ionization (ESI), with sample dilution in water/acetonitrile as the standard produre. Electronic absorption spectra were recorded on an Evolution 201 UV/vis spectrometer with Thermo Insight software. Fluorescence spectra were collected on a Horiba Fluoromax-4 fluorometer with a maximum detection wavelength of 850 nm. Analyte solutions were prepared on the lab bench (exposed to air and light) using in HPLC grade water (Sigma-Aldrich), dimethylsulfoxide (Sigma-Aldrich), pH 7.4 1× phosphate buffered saline (Thermo Fisher) or fetal bovine serum (Sigma-Aldrich). Stock solutions for spectroscopy studies were prepared and used within 2 hours. All absorption and fluorescence spectra were collected using quartz cuvettes (1 mL, 1 cm path length).
Samples were excited at 730 nm with optical density≤0.05. First, photons were recorded with an integrating sphere after the excitation of a blank solvent reference, then the reference was replaced by a sample solution, and the spectrum (720-875 nm) was acquired again. The quantum yield was calculated by the equation below:
[formula] where P is the number of photons, F is the fluorescence intensity and E is the intensity at the excitation wavelength. Experiments were conducted in triplicate, with the reported absolute quantum yields corresponding to the mean value±standard deviation.
The fluorescence spectrum of each solution was obtained with excitation at 720 nm, and the integrated area was used to calculate the quantum yield according to the following equation:
[formula] where η is the refractive index of the solvent, I is the integrated fluorescence intensity, and A is the absorbance at a chosen wavelength. The estimated error for this method is ±15%.

[6] = Stability of 1.0 mM aqueous stock solutions at room temperature under low photon intensity storage (1H NMR, reverse phase TLC); details: for Stability of stored stock solution, ICG versus ICG-d5 (degradation to oxidative dimer): one week; for Stability of stored stock solution, ICG versus ICG-d5 (degradation to oxidative dimer) / Conversion to oxidative dimer: reverse phase TLC; for Conversion to oxidative dimer: 3-day old 1.0 mM stock solution, primarily in the dark at room temperature
Method: Every day, a 50 μL aliquot was removed from each stock solution, lyophilized, and stored as a solid at −20° C.
At each time point, a 1.0 mL aliquot was taken from the stock solution, the aliquot was lyophilized, the solid residue was dissolved in 0.60 mL of methanol-d4, and a ^1H NMR spectrum was acquired.
The solutions were stored at room temperature and low photon intensity conditions (only exposed to lab lights during sample preparation and when aliquots were removed from samples). After 72 h and 120 h, 1 mL aliquots were taken from each stock solution and lyophilized. In each case, the solid residue was dissolved in 0.6 mL of methanol-d4 and a ^1H NMR spectrum was recorded.
The second set of dye stability experiments were designed to mimic the low photon intensity storage conditions experienced by a typical reconstituted dose in water before it is administered in a clinical setting. Thus, stock solutions of the dyes were exposed to the atmosphere and laboratory lights during the initial reconstitution and periodic sampling, but otherwise stored as capped vials in the dark at room temperature.

[7] = 20 μg/mL solution in water, 24 hours; cited from earlier work
[8] = 1.0 mM in water, room temperature, low photon intensity, storage 72 h, 1H NMR
[9] = 1.0 mM in water, room temperature, low photon intensity, storage 120 h, 1H NMR
[10] = 1.0 mM in water, room temperature

**Q.** What does the source list for `CC1(C)C(/C=C/C=C/C=C/C=C2/N(CCCCS(=O)(=O)[O-])c3ccc4ccccc4c3C2(C)C)=[N+](CCCCS(=O)(=O)[O-])c2ccc3ccccc3c21.[Na+]` [ICG, Indocyanine Green, reference compound]?
**A.** Purity of aqueous solution ([1]; 7 days storage): 85%; Purity of aqueous solution ([1]; 28 days storage): 52%; Water solubility [2]: 1000 µg/mL; Association constant Ka, titration isotherm fitted to 1:1 model [3]: (3.4±0.5)×10^5 M^−1; Photostability versus concentration and solvent [4]: 1.0 mM ICG solution in water is more photostable than a 0.05 mM ICG solution in water; λ abs max ([5]; DMSO): 795 nm; λ em max ([5]; DMSO): 820 nm; ε ([5]; DMSO): 224,000 M^−1cm^−1; ΦF (fluorescence quantum yield) ([5]; DMSO): 16.7 ± 0.6%; Brightness ([5]; DMSO): 37,000; λ abs max ([5]; FBS): 800 nm; λ em max ([5]; FBS): 813 nm; ε ([5]; FBS): 197,000 M^−1cm^−1; ΦF (fluorescence quantum yield) ([5]; FBS): 9.7 ± 0.4%; Brightness ([5]; FBS): 19,000; Effect of H2O2 on formation of oxidative dimer 1 ([6]; 1.0 mM in water, 5 h, H2O2 10 molar equivalents, TLC): higher amount of oxidative dimer 1; Effect of air and light exposure on formation of oxidative dimer 1 ([6]; 1.0 mM in water, 30 h, room temperature, TLC and NMR): inhibits formation of oxidative dimer 1; Effect of additives on dimerization to oxidative dimer 1 ([6]; 1 mM in water, additives 10 molar equivalents, 24 h, room temperature, low photon intensity, TLC): promoted by the presence of NaI; also recorded: stopped by base (NaHCO3 and NaOAc), singlet oxygen quencher (NaN3) and reductant (Na2SO3 and Na ascorbate); Weight percentage remaining in aqueous stock solution [6, 8]: 73.6 ± 1.7 wt %; Weight percentage remaining in aqueous stock solution [6, 9]: 67.4 ± 1.0 wt %; Stability of stored stock solution, ICG versus ICG-d5 (degradation to oxidative dimer) [6, 10]: more degradation; Dimerization in water versus ethanol ([6]; 1.0 mM, 48 h, room temperature, low photon intensity, TLC): favored in water; Conversion to oxidative dimer [6]: ~20%; Degradation to oxidative dimer 1 versus concentration ([6]; water, different concentrations, 72 h, room temperature, low photon intensity, 1H NMR): slower at higher concentrations; ICG remaining [7]: 20%

**Q.** For `[2H]C(=C\C1=[N+](CCCCS(=O)(=O)[O-])c2ccc3ccccc3c2C1(C)C)/C([2H])=C([2H])/C([2H])=C([2H])/C=C1/N(CCCCS(=O)(=O)[O-])c2ccc3ccccc3c2C1(C)C.[Na+]` [ICG-d5, Indocyanine Green-d5], which “Purity of aqueous solution” value ([1]; 7 days storage) is on record?
**A.** 99%

**Q.** What about the “Purity of aqueous solution” value ([1]; 28 days storage) of the same compound?
**A.** 85%

**Q.** And the “Stability of stock solution in a refrigerator” value ([1]; 7 and 28 days)?
**A.** increased stability in a refrigerator

**Q.** And the “Association constant Ka, titration isotherm fitted to 1:1 model” value [3]?
**A.** (3.8±0.6)×10^5 M^−1

**Q.** What about the λ abs max ([5]; DMSO) of the same compound?
**A.** 793 nm

**Q.** What about the λ em max ([5]; DMSO) of the same compound?
**A.** 819 nm

**Q.** And the ε ([5]; DMSO)?
**A.** 253,000 M^−1cm^−1

**Q.** What about the “ΦF (fluorescence quantum yield)” value ([5]; DMSO) of the same compound?
**A.** 19.8 ± 0.5%

**Q.** And the Brightness ([5]; DMSO)?
**A.** 49,000

**Q.** And the λ abs max ([5]; FBS)?
**A.** 796 nm

**Q.** What about the λ em max ([5]; FBS) of the same compound?
**A.** 813 nm

**Q.** What about the ε ([5]; FBS) of the same compound?
**A.** 205,000 M^−1cm^−1

**Q.** And the “ΦF (fluorescence quantum yield)” value ([5]; FBS)?
**A.** 10.5 ± 0.3%

**Q.** What about the Brightness ([5]; FBS) of the same compound?
**A.** 21,000

**Q.** What about the “Weight percentage remaining in aqueous stock solution” value [6, 8] of the same compound?
**A.** 86.0 ± 0.8 wt %

**Q.** And the “Weight percentage remaining in aqueous stock solution” value [6, 9]?
**A.** 80.9 ± 1.2 wt %

**Q.** What about the “Stability of stored stock solution, ICG versus ICG-d5 (degradation to oxidative dimer)” value [6, 10] of the same compound?
**A.** substantially more stable

**Q.** What about the “Conversion to oxidative dimer” value [6] of the same compound?
**A.** ~2%

**Q.** With `CC1(C)C(=CC=CC=C(C=CC2=[N+](CCCCS(=O)(=O)[O-])c3ccc4ccccc4c3C2(C)C)C(C=CC2=[N+](CCCCS(=O)(=O)[O-])c3ccc4ccccc4c3C2(C)C)=CC=CC=C2N(CCCCS(=O)(=O)O)c3ccc4ccccc4c3C2(C)C)N(CCCCS(=O)(=O)O)c2ccc3ccccc3c21` [compound 1] as the compound, how does the Kd ([3]; fluorescence titration, 2 μM BSA, read-out: Dissociation constant (Kd) of BSA binding) read?
**A.** 34 µM
